Measurements taken from patent US11965159B2, “Compositions and methods for regulating proteins and nucleic acids activities” (THE BROAD INSTITUTE, INC., priority 2019, dated 2024).

How the values were obtained:
SpCas9 = SpCas9 (Streptococcus pyogenes serotype M1, UniProt Q99ZW2); assay: Cas9 nuclease activity in EGFP disruption assay in U2OS.eGFP.PEST cells; type: cell-based; design: host or cells: U2OS.eGFP-PEST; details: 10, 15, 20 μM, 24 h
Protocol: Cas9 Nuclease activity in EGFP disruption assay. Approximately 200,000 U2OS.eGFP-PEST cells were nucleofected with 400 ng of SpCas9 (Addgene Plasmid #43861) and 40 ng of sgRNA (pFYF1320 EGFP Site #1, Addgene Plasmid #47511) expressing plasmids along with a Td-tomato-encoding plasmid using the SE Cell Line 4D-Nucleofector™ X Kit (Lonza™) according to the manufacturer's protocol. Approximately 20,000 transfected cells/well in 3 replicates were plated in a 96-well plate (Corning® 3904). Cells were allowed to grow in the indicated amount of compound or DMSO for 24 h post transfection. Cells were then fixed using 4% paraformaldehyde and imaged with the HCS NuclearMask™ Blue Stain (Life Technologies™) as the nuclear counter-staining agent. Imaging was performed with an IXM 137204 ImageXpress® Automated High Content Microscope (Molecular Devices™) at 10× magnification under three excitation channels (blue, green and red) with 9 acquiring sites per well. Images were analyzed in the MetaXpress® software and data were plotted using GraphPad Prism 6. The Z′-value was calculated following the formula: […]
Cas9 Nuclease activity in EGFP disruption assay. In some embodiments, a quantitative human cell-based reporter assay that enables rapid quantitation of targeted nuclease activities is used to characterize off-target cleavage of CRISPR protein-based RNA guided endonucleases. In this assay, the activities of nucleases targeted to a single integrated EGFP reporter gene can be quantified by assessing loss of fluorescence signal in human U2OS.EGFP cells caused by inactivating frameshift insertion/deletion (indel) mutations introduced by error prone non-homologous end-joining (NHEJ) repair of nuclease-induced double-stranded breaks (DSBs).
Approximately 200,000 U2OS.eGFP-PEST cells were nucleofected with 400 ng of SpCas9 (Addgene Plasmid #43861) and 40 ng of sgRNA (pFYF1320 EGFP Site #1, Addgene Plasmid #47511) expressing plasmids along with a Td-tomato-encoding plasmid using the SE Cell Line 4D-Nucleofector™ X Kit (Lonza™) according to the manufacturer's protocol. […]

SpCas9:gRNA complex = molecular target: T1, SpCas9:gRNA complex (Streptococcus pyogenes serotype M1, UniProt Q99ZW2); assay: Compound-Cas9 interaction in Bio-Layer Interferometry (BLI); type: binding; details: excess (10×) of biotin to BRD7087 loading
T1 construct: His6 (N, cleaved yes); made in house; host or cells: E. coli BL21 Star (DE3)
T1 sequence (Q99ZW2 whole entry, one chain of several): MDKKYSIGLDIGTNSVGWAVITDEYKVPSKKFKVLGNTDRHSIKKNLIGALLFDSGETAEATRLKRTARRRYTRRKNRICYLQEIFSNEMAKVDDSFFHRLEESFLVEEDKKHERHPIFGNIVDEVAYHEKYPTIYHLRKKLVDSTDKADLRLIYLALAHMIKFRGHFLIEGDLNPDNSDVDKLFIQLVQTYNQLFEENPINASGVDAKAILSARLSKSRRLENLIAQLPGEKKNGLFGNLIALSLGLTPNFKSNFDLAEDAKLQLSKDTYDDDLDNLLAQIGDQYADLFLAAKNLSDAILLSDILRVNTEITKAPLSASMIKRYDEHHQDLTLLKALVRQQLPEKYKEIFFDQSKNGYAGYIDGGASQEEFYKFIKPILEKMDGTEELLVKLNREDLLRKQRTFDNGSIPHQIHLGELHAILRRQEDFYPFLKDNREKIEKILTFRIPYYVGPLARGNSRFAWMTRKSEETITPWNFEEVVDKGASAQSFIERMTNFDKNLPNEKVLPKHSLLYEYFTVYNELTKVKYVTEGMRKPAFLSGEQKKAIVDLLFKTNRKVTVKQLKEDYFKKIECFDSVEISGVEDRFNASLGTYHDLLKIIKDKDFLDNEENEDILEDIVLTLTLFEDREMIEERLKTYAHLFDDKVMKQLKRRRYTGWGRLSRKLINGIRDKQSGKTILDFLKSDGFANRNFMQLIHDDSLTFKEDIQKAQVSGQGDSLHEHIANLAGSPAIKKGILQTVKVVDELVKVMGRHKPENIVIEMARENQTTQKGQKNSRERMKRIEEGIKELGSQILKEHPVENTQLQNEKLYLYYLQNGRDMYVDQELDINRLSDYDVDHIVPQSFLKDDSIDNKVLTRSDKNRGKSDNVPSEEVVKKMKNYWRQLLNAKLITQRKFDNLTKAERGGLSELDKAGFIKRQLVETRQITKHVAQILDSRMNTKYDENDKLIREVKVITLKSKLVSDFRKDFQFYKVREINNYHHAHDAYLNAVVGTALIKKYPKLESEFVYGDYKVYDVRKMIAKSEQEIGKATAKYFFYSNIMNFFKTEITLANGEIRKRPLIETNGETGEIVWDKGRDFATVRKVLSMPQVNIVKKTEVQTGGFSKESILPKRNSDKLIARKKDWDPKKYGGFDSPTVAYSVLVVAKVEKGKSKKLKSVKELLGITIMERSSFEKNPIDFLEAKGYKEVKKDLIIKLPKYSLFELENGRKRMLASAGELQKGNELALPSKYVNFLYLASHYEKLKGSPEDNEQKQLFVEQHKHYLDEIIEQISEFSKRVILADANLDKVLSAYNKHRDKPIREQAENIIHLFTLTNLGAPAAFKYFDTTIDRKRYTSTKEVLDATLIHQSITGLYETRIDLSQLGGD
Protocol: Compound-Cas9 interaction in BLI. The experiments were performed in a 96-well format with 180 μL reaction volume using biotinylated compound BRD7087-Biotin and streptavidin sensors. 1 μM of the biotinylated compound was loaded onto the sensors for 180s in 20 mM Tris buffer of pH 7.4, 100 mM KCl, 5 mM MgCl2, 1 mM DTT, 0.01% Tween. The compound loaded sensors were then allowed to associate with the different concentration of SpCas9:gRNA complex (1-0.15 μM) for 300s followed by dissociation in the reaction buffer. Reference sensor was loaded with compound and allowed to associate and dissociate in the reaction buffer alone. The response curves were fitted with a 2:1 stoichiometric model and a global fit steady-state analysis were performed using manufacturer inbuilt protocol. The experiment was performed in three replicates.
The competitive experiments were performed using Biotin-linker fragment. In this experiment, streptavidin sensors were pre-incubated with 10 μM of Biotin-linker before dipping into a solution of either 1 μM BRD7087-Biotin or reaction buffer alone. Sensors were then allowed to associate with different concentration of SpCas9:gRNA complex or buffer alone.
Compound-Cas9 interaction in BLL The experiments were performed in a 96-well format with 180 μL reaction volume using biotinylated compound BRD7087-Biotin and streptavidin sensors. […]

Chain of SpCas9 (Q99ZW2 whole entry): as the sequence (Q99ZW2 whole entry, one chain of several) above

| Structure (SMILES) | potency of stereoisomers in EGFP-disruption assay relative to BRD7087 / BRD5779 (SpCas9) | BLI response signal in competitive experiment (SpCas9:gRNA complex) |
| --- | --- | --- |
| OC[C@H]1Nc2ccc(-c3cccc(F)c3)cc2[C@@H]2[C@H]1CCN2Cc1ccncc1 [BRD0750, ((3aS,4S,9bS)-8-(3-Fluorophenyl)-1-(pyridin-4-ylmethyl)-2,3,3a,4,5,9b-hexahydro-1H-pyrrolo[3,2-c]quinolin-4-yl)methanol] | less potent | – |
| OC[C@@H]1Nc2ccc(-c3cccc(F)c3)cc2[C@@H]2[C@H]1CCN2Cc1ccncc1 [BRD5039, ((3aS,4R,9bS)-8-(3-Fluorophenyl)-1-(pyridin-4-ylmethyl)-2,3,3a,4,5,9b-hexahydro-1H-pyrrolo[3,2-c]quinolin-4-yl)methanol] | equipotent as BRD7087 | – |
| O=C(CCCC[C@@H]1SC[C@@H]2NC(=O)N[C@@H]21)NCCOCCOCCOCCC(=O)Nc1cccc(-c2ccc3c(c2)[C@H]2[C@H](CCN2Cc2ccncc2)[C@@H](CO)N3)c1 [biotin-conjugate of BRD7087, N-(2-(2-(2-(3-((3-((3aR,4S,9bR)-4-(Hydroxymethyl)-1-(pyridin-4-ylmethyl)-2,3,3a,4,5,9b-hexahydro-1H-pyrrolo[3,2-c]quinolin-8-yl)phenyl)amino)-3-oxopropoxy)ethoxy)ethoxy)ethyl)-5-((3aS,4S,6aR)-2-oxohexahydro-1H-thieno[3,4-d]imidazol-4-yl)pentanamide] | – | no substantial response signal |
| OC[C@@H]1Nc2ccc(-c3cccc(F)c3)cc2[C@H]2[C@@H]1CCN2Cc1ccncc1 [BRD2161, ((3aR,4R,9bR)-8-(3-Fluorophenyl)-1-(pyridin-4-ylmethyl)-2,3,3a,4,5,9b-hexahydro-1H-pyrrolo[3,2-c]quinolin-4-yl)methanol] | less potent | – |
